Measurements taken from patent US20240297323A1, “BIOBASED AQUEOUS ORGANIC-BASED ELECTROLYTE IN AQUEOUS ORGANIC REDOX FLOW BATTERY” (KEMIWATT, priority 2021, published 2024).
Values after ≈ are worked out from the molar mass of the structure shown. Like-named read-outs stand apart in the source and are kept apart here.

Experiments:
[1] = redox-active molecules used in negolytes in ARFBs; cited from earlier work
[2] = Water solubility by shake-flask method in alkaline aqueous solution; type: physicochemical; settings: for solubility: aqueous buffer, thermodynamic from solid
Experimental: The solubility of the compounds was evaluated in aqueous solution at various pH by shake-flask method. An aqueous solution (containing either KOH 1 M, NaOH 1 M, or a mixture of KOH 0.5 M and NaOH 0.5 M) is added over 100 mg of compound by 20 μL portions until complete solubilization. We obtain an approximate range of solubility values calculated as following:
Smax˜(m/M)/V; m=mass of evaluated compound(g);M=molar mass of evaluated compound(g·mol^−1);V=added volume(L).

[3] = Post-cycling analyses of the negolyte (cyclic voltammetry and 1H NMR before and after cycling); type: physicochemical; settings: for chemical stability in the application: conclusion from cycling and post-cycling analyses; for degradation during the cycling test (1H NMR in D2O before/after): negolyte after cycling
Experimental: FIG. 3: Cyclic voltammetry (3rd cycle) of the negolyte (black line) before the cycling test and (grey line) after cycling test, recorded at a scan rate of 100 mV·s^−1.
FIG. 4: ^1H NMR spectra of the negolyte, recorded in D2O between 0 and 10 ppm, (black line) before and (grey line) after the cycling test.
A preliminary electrochemical test was performed on the negolyte before and after the cycling test (FIG. 3).
Further analyses were performed using ^1H NMR spectroscopy, see FIG. 4.
A preliminary electrochemical test was performed on the negolyte before and after thousands of cycles and a few months of cycling test (FIG. 7).
Further analyses were performed using ^1H NMR spectroscopy, see FIG. 8.
A preliminary electrochemical test was performed on the negolyte before and after the cycling test (FIG. 10) which lasted for more than 1000 cycles, or 25 days of constant cycling.
Further analyses were performed using ^1H NMR spectroscopy, see FIG. 11.

[4] = Electrochemical properties at diluted state (cyclic voltammetry, RDE linear sweep voltammetry); type: physicochemical; settings: for k^0′O × 10^−2 apparent heterogeneous rate constant: Gileadi's equation, transfer coefficient 0.5; for E1/2 half-wave potential: LSV with RDE, 400 up to 1 000 RPM, pH 14; for DO × 10^−6 diffusion coefficient: Randles-Sevcik, scan rates 10 mV/s up to 20 V/s; for Peak-to-peak separation ΔEp at pH 14: pH 14 (KOH 1 M), 5.10^−3 M, scan rate 100 mV·s^−1, third cycle
Experimental: Cyclic voltammetry experiments were performed at a 100 mV/s scan rate for compounds A, B and B-M3CH in a solution at pH 14 (KOH 1 M).
The electrochemical experiments were conducted on an electrochemical working station (BioLogic Science Instruments VSP) at 25° C. using a three-electrodes electrochemical cell, where a Pt wire was employed at the counter electrode (CE), an Ag/AgCl/KCl saturated electrode immerged in a 1 M KOH solution protected from the cell by a porous frit glass served as the reference electrode (RE) and a rotating disc electrode (RDE) mounted with a glassy carbon (GC, 7.069 mm^2) disk was used as the working electrode (WE), respectively. The potential was reported relative to the normal hydrogen electrode (NHE), which was converted from the Ag/AgCl reference electrode (0.230 V versus NHE). The ohmic drop between the WE and RE is determined by current interrupt experiments and leads to a value close to 0.7069 Ω·cm^2. All cyclic voltammetry experiments were conducted by alleviating most of this resistance (85%) using the potentiostat manual ohmic drop compensation. Before each electrochemical measurement, the GC disk electrode was polished using SiC P4000 foil.
Each recorded cyclic voltammetry of the reduction and the oxidation process of a compound at a given scan rate is analyzed by measuring ip,a=anodic peak current; ip,c=cathodic peak current; v=scan rate; Ep,a=anodic peak potential; Ep,c=cathodic peak potential; ΔEp=Ep,a−Ep,c; the apparent standard redox potential E^0′=[…].
Linear sweep voltammetry (LSV) using the RDE at various rotation speed (400 up to 1 000 RPM) were performed to determine the averaged half-wave potential E1/2.
The oxidation (DO) and the reduction (DR) diffusion coefficients were calculated using Randles-Sevcik (RS) equation ip=0.4463.n^3/2.F^3/2.A.C.v^1/2.D^1/2.R^−1/2.T^−1/2=Cte.v^1/2.D^1/2, n=number of electrons exchanged during the redox process; F=faradaic number=96485 C·mol^−1; A=electrode active surface; C=redox active molecule concentration; R=gas constant=8.314 J·K^−1·mol^−1; T=bulk temperature=299 K. The experiments are conducted by cyclic voltammetry at various scan rates ranging from 10 mV/s up to 20 V/s.
A graphic of |ip,a| and |ip,c|=f(Cte.v^1/2) is plotted, if the redox process is reversible and diffusion controlled, the peak current should be proportional to the square root of the scan rate. The diffusion coefficients (oxidation and reduction) are then calculated by taking the square of the regression lines slopes. Diffusion coefficients (oxidation and reduction processes) are evaluated by plotting the peak current versus a constant multiplied by the square root of the scan rate. The plots regression line gives a straight line with perfect correlation coefficient (100%) confirming that the redox process is reversible and diffusion controlled. The square of each slope gives the associated coefficient diffusion in cm^2·s^−1.
The apparent heterogeneous rate constant during reduction (k^0′O) process was calculated using Gileadi's equation (C. Russel, W. Jaenicke, Electrochimica Acta, Vol 27, No. 12, 1745-1750, 1982) log k^0′=−0.48.α+0.52+log[(n.F.α.vc.D)/(2.303.R.T)]^1/2; vc is the critical scan rate, it is calculated by plotting the peak potentials versus the logarithm of the scan rates, and is more precise when a very wide range of scan rates is used, which is the case here (0.010 up to 20 V·s^−1), it is determined at the x-axis of the point of intersection of the regression lines drawn at low and high scan rates; a is the transfer coefficient that is supposed to be close to 0.5 for all presented compounds.
Peak-to-peak separation ΔEp values were determined from the third cycle of each cyclic voltammogram and are gathered in the following table 2.
The standard redox process reversibility evaluation is performed in diluted state, at 5 mM of concentration, at pH 14 buffered with 1 M of KOH. […]

[5] = aqueous KOH 1 M solution, aqueous KOH 1 M, shake-flask, approximate, read-out: solubility estimated, KOH (1M)
[6] = aqueous NaOH 1 M solution, aqueous NaOH 1 M, shake-flask, approximate, read-out: solubility estimated, NaOH (1M)
[7] = aqueous alkaline solution, aqueous alkaline environment, read-out: solubility in aqueous alkaline environment
[8] = aqueous mixture of KOH 0.5 M and NaOH 0.5 M, mixture of KOH 0.5 M and NaOH 0.5 M, shake-flask, approximate, read-out: solubility estimated, KOH 0.5M + NaOH 0.5M

| solubility [2, 5] | solubility [2, 6] | solubility [2, 8] | degradation during the cycling test (1H NMR in D2O before/after) [3] | k^0′O × 10^−2 apparent heterogeneous rate constant [4] | E1/2 half-wave potential [4] | DO × 10^−6 diffusion coefficient [4] | Peak-to-peak separation ΔEp at pH 14 [4] | Compound | DO × 10^−6 [1] | k^0′O × 10^−2 [1] | other results |
| --- | --- | --- | --- | --- | --- | --- | --- | --- | --- | --- | --- |
|  |  |  |  |  |  |  |  | O=C1c2ccc(S(=O)(=O)O)cc2C(=O)c2cc(S(=O)(=O)O)ccc21 [AQ-2,7-DS] | 3.8 × 10^−6 cm^2/s | 0.72 × 10^−2 cm/s |  |
|  |  |  |  |  |  |  |  | C[N+](C)(C)CCC[n+]1ccc(-c2cc[n+](CCC[N+](C)(C)C)cc2)cc1.[Cl-].[Cl-].[Cl-].[Cl-] [BTMAP-Vi] | 3.3 × 10^−6 cm^2/s | 2.2 × 10^−2 cm/s |  |
| 480 mM (≈ 143 mg/mL) | 320 mM (≈ 95.4 mg/mL) | 490 mM | degraded into multiple compounds | 0.78 × 10^−2 cm/s | −0.59 V vs NHE | 3.65 × 10^−6 cm^2/s | 56 mV | Cc1c(C(=O)O)c(O)cc2c1C(=O)c1c(O)cccc1C2=O [Compound A] |  |  | solubility [2, 7]: > 300 mM; oxidation not originally present in the negolyte ([3]; after cycling): −0.57 V vs Ag/AgCl; chemical stability in the application [3]: low chemical stability |
| 580 mM (≈ 147 mg/mL) | 500 mM (≈ 127 mg/mL) | 630 mM | does not undergo any degradation | 0.80 × 10^−2 cm/s | −0.57 V vs NHE | 2.99 × 10^−6 cm^2/s | 40 mV | Cc1cc(O)cc2c1C(=O)c1c(O)cccc1C2=O [Compound B, 3,8-dihydroxy-1-methylanthracene-9,10-dione] |  |  | solubility [2, 7]: > 300 mM; decrease of redox signature current intensity after cycling ([3]; after thousands of cycles and a few months, ascribed to osmosis dilution): 30-35% |
| 150 mM (≈ 51 mg/mL) | 150 mM (≈ 51 mg/mL) | ~430 mM | does not undergo any degradation | 2.47 × 10^−2 cm/s | −0.49 V vs NHE | 4.58 × 10^−6 cm^2/s | 30 mV | Cc1cc(OCCCC(=O)O)cc2c1C(=O)c1c(O)cccc1C2=O [Compound B-M3CH, 4-((5-hydroxy-4-methyl-9,10-dioxo-9,10-dihydroanthracen-2-yl)oxy)butanoic acid] |  |  | solubility ([2]; aqueous KOH 1 M or NaOH 1 M solution, KOH 1 M or NaOH 1 M, read-out: solubility in ionic environment containing one type of alkaline cation): ~150 mM (≈ 51 mg/mL); solubility estimated, KOH 0.5M + NaOH 0.5M ([2]; mixture of KOH 0.5 M and NaOH 0.5 M, shake-flask, approximate): 430 mM; increase of redox signature current intensity after cycling ([3]; after more than 1000 cycles, 25 days, ascribed to osmosis concentration): about 30%; chemical stability in the application [3]: increased its stability |
|  |  |  |  |  |  |  |  | O=C(O)CCCOc1ccc2c(c1)C(=O)c1ccc(OCCCC(=O)O)cc1C2=O [DBEAQ] | 1.58 × 10^−6 cm^2/s | 0.70 × 10^−2 cm/s |  |
|  |  |  |  |  |  |  |  | O=C1c2ccc(O)cc2C(=O)c2ccc(O)cc21 [DHAQ] | 4.8 × 10^−6 cm^2/s | 0.70 × 10^−2 cm/s |  |
|  |  |  |  |  |  |  |  | O=C1C=C(O)C(=O)C=C1O [DHBQ] | 3.66 × 10^−6 cm^2/s | 0.21 × 10^−2 cm/s |  |
|  |  |  |  |  |  |  |  | O=C1c2ccc(OCCCP(=O)(O)O)cc2C(=O)c2ccc(OCCCP(=O)(O)O)cc21 [DPPEAQ] | 1.37 × 10^−6 cm^2/s |  |  |
|  |  |  |  |  |  |  |  | Cc1cc2nc3c(=O)[nH]c(=O)nc-3n(C[C@H](O)[C@H](O)[C@H](O)COP(=O)([O-])O)c2cc1C.[Na+] [Flavine FMN-Na] | 1.3 × 10^−6 cm^2/s | 0.53 × 10^−2 cm/s |  |
